Assay results reported in US7064139B2, “Method for treating retroviral infections” (Uniroyal Chemical Company, Inc., priority 2001, dated 2006).
≈ marks a conversion by molar mass, not a printed value. Read-outs that look alike come from different tables or passages of the source.

Key:
HIV-1 (IIIB) = assay: microbe, parasite or virus in culture; assay type: cell-based; settings: for EC50 (ug/ml) HIV-1 / EC50: CEM cells, syncytium formation, day four post infection; for HIV-1 % Protection: protection of CEM cells against virus-induced cytopathicity at the concentration in the previous column; for EC50: Human immunodeficiency virus 1, IIIB, CCRF-CEM, read-out: EC50 (ug/ml) HIV-1
Source text: (§1) The cell type used to determine activity of the compounds of the invention herein, i.e., the test compounds, against HIV was human T-lymphoblast (CEM) cells obtained from the American Tissue Cell Culture Collection (Rockville, Md.). HIV-1 (IIIB) was originally obtained from the culture of persistently HIV-1 infected H9 cells and was provided by R. C. Gallo and M. Popovic (National Cancer Institute, National Institutes of Health, Bethesda, Md.). HIV-2 (ROD) was originally obtained from L. M. Montagnier (Pasteur Institute, Paris, France).
(§2) To determine the antiviral activity of the test compounds, CEM cells were suspended at a cell density of approximately 300,000 cells per ml of culture medium and infected with approximately 100 CCID50 (100 CCID50 being the 50% cell culture infective dose) of HIV-1 (IIIB) or HIV-2 (ROD)). Then 100 μl of the infected cell suspensions was added to 200 μl micro titer plate wells containing 100 μl of appropriate serial (5-fold) dilutions of the test compounds. The inhibitory effect of the test compounds on HIV-1 or HIV-2 syncytium formation in CEM cells was examined microscopically on day four post infection.
(§3) In these cases, the percent protection of the cells against virus-induced cytopathicity by the test compounds at the indicated compound concentration in the previous column is given.

HIV-2 (ROD) = assay: Inhibition of HIV-2 syncytium formation in CEM cells; assay type: cell-based; settings: for HIV-2 % Protection: protection of CEM cells against virus-induced cytopathicity at the concentration in the previous column; for EC50: Human immunodeficiency virus 2, CCRF-CEM, read-out: EC50 (ug/ml) HIV-2
Source text: as §1, §2, §3

Davis strain CMV = assay: Reduction of CMV-induced cytopathicity in HEL cells; assay type: cell-based, human cytomegalovirus (HCMV); settings: for Antiviral % Inhibition Davis strain CMV: estimate of percent protection at the concentration in the previous column; for EC50: read-out: Antiviral EC50 (ug/ml) Davis strain CMV
Protocol: Confluent HEL cells grown in […] microtiter plates were inoculated with CMV at an input of 100 PFU (plaque forming units) per well. After a one to two hour incubation period, residual virus was removed and the infected cells were further incubated with MEM (Minimal Essential Medium) (supplemented with 2% inactivated Fetal Calf Serum (FCS), […], and 0.3% sodium bicarbonate) containing varying concentrations of the test compounds. Antiviral activity was expressed as EC50 (50% effective concentration), or test compound concentration required to reduce virus-induced cytopathicity after seven days by 50% compared to the untreated control.
In some cases, the compounds had considerable cytotoxicity against HEL cells, which made determination of the EC50 difficult. In these cases, an estimate of the percent protection at the compound concentration indicated in the previous columns is given.

[1] = CEM cells, syncytium formation, day four post infection
[2] = HEL cells, virus-induced cytopathicity after seven days
[3] = Human betaherpesvirus 5, 168 h, HEL cells, virus-induced cytopathicity after seven days

| SMILES | EC50 (ug/ml) HIV-1 (HIV-1 (IIIB)) | EC50 (ug/ml) HIV-2 (HIV-2 (ROD); [1]) | Antiviral EC50 (ug/ml) Davis strain CMV (Davis strain CMV; [2]) | HIV-1 % Protection (HIV-1 (IIIB)) | HIV-2 % Protection (HIV-2 (ROD)) | Antiviral % Inhibition Davis strain CMV (Davis strain CMV; HEL cells) | EC50 (HIV-1 (IIIB)) | EC50 (HIV-2 (ROD)) | EC50 (Davis strain CMV; Human betaherpesvirus 5, HEL, 168 h) | EC50 (HIV-2 (ROD); [1]) | EC50 (Davis strain CMV; [3]) |
| --- | --- | --- | --- | --- | --- | --- | --- | --- | --- | --- | --- |
| O=S(=O)(Cc1ccccc1F)c1cccc[n+]1[O-] [Compound 22] | 12.00 µg/mL (≈ 44.9 µM) | 6.3 µg/mL (≈ 23.6 µM) | 7.0 µg/mL |  |  |  |  |  |  |  |  |
| O=S(=O)(Cc1ccc(CS(=O)(=O)c2cccc[n+]2[O-])cc1)c1cccc[n+]1[O-] [Compound 23] | ≧20 ug/ml | ≧20 ug/ml | >20 µg/mL | 37.5% | 37.5% | 20.0% |  |  |  |  |  |
| N#Cc1ccccc1CS(=O)(=O)c1cccc[n+]1[O-] [Compound 24] | 7.00 µg/mL (≈ 25.5 µM) | 9.5 µg/mL (≈ 34.6 µM) | >5 µg/mL |  |  | 30.0% |  |  |  |  |  |
| Cc1cc(CS(=O)(=O)c2cccc[n+]2[O-])c(C)cc1CS(=O)(=O)c1cccc[n+]1[O-] [Compound 25] | 10.00 µg/mL (≈ 22.3 µM) | ≧20 ug/ml | 16.0 µg/mL |  | 37.5% |  |  |  |  |  |  |
| Cc1cccc(CS(=O)(=O)c2cccc[n+]2[O-])c1 [Compound 27] | 2.40 µg/mL (≈ 9.11 µM) | 9.0 µg/mL (≈ 34.2 µM) | 16.0 µg/mL |  |  |  |  |  |  |  |  |
| O=S(=O)(Cc1cccc(F)c1)c1cccc[n+]1[O-] [Compound 28] | 6.50 µg/mL (≈ 24.3 µM) | 7.5 µg/mL (≈ 28.1 µM) | >20 µg/mL |  |  | 40.0% |  |  |  |  |  |
| O=S(=O)(Cc1ccc(F)cc1)c1cccc[n+]1[O-] [Compound 29] | 11.00 µg/mL (≈ 41.2 µM) | 7.0 µg/mL (≈ 26.2 µM) | >20 µg/mL |  |  | 10.0% |  |  |  |  |  |
| COc1ccc(C)cc1CS(=O)(=O)c1cccc[n+]1[O-] [Compound 30] | 1.60 µg/mL (≈ 5.45 µM) | 14.0 µg/mL (≈ 47.7 µM) | 37.0 µg/mL |  |  |  |  |  |  |  |  |
| COc1ccc(Br)c(CS(=O)(=O)c2cccc[n+]2[O-])c1 [Compound 31] | 4.00 µg/mL (≈ 11.2 µM) | 9.0 µg/mL (≈ 25.1 µM) | 10.0 µg/mL |  |  |  |  |  |  |  |  |
| O=S(=O)(Cc1c(Cl)c(Cl)c(Cl)c(Cl)c1Cl)c1cccc[n+]1[O-] [Compound 32, 2-(Pentachlorobenzylsulfonyl)-pyridine-N-oxide] |  |  |  |  |  |  | 0.63 µg/mL (≈ 1.49 µM) | 1 µg/mL (≈ 2.37 µM) | 14 µg/mL (≈ 33.2 µM) |  |  |
| O=S(=O)(Cc1c(Cl)ccc(Cl)c1Cl)c1cccc[n+]1[O-] [Compound 33] | ≧4 ug/ml | ≧4 ug/ml | 5.0 µg/mL | 37.5% | 37.5% |  |  |  |  |  |  |
| N#Cc1ccc(CS(=O)(=O)c2cccc[n+]2[O-])cc1 [Compound 34] | 9.00 µg/mL (≈ 32.8 µM) | 10.0 µg/mL (≈ 36.5 µM) | >20 µg/mL |  |  | 10.0% |  |  |  |  |  |
| CC(C)c1ccc(C(C)C)c(CS(=O)(=O)c2cccc[n+]2[O-])c1 [Compound 35] | ≧4 ug/ml | ≧4 ug/ml | 3.2 µg/mL | 37.5% | 37.5% |  |  |  |  |  |  |
| O=S(=O)(Cc1ccc(Cl)c(Cl)c1)c1cccc[n+]1[O-] [Compound 37, 2-(3,4-dichlorobenzylsulfonyl)-pyridine-N-oxide] |  |  |  |  |  | 30.0% | 1 µg/mL (≈ 3.14 µM) |  |  | 1.3 µg/mL (≈ 4.09 µM) | > 5 µg/mL |
| O=S(=O)(Cc1cccc(Br)c1)c1cccc[n+]1[O-] [Compound 38] | 2.50 µg/mL (≈ 7.62 µM) | ≧4 ug/ml | 5.0 µg/mL |  | 37.5% |  |  |  |  |  |  |
| CCC(C)(C)c1ccc(CS(=O)(=O)c2cccc[n+]2[O-])cc1 [Compound 40, 2-(((4-(1,1-dimethyl)propyl)phenyl)methylsulfonyl)pyridine-N-oxide] | 3.10 µg/mL (≈ 9.7 µM) | 3.4 µg/mL (≈ 10.6 µM) | 1.5 µg/mL |  |  |  |  |  |  |  |  |
| Cc1ccc(C)c(CS(=O)(=O)c2cccc[n+]2[O-])c1C [Compound 41] | 5.00 µg/mL (≈ 17.2 µM) | 4.7 µg/mL (≈ 16.1 µM) | 8.6 µg/mL |  |  |  |  |  |  |  |  |
| O=[N+]([O-])c1ccccc1CS(=O)(=O)c1cccc[n+]1[O-] [Compound 42] | 8.00 µg/mL (≈ 27.2 µM) | ≧4 ug/ml | >5 µg/mL |  | 37.5% | 10.0% |  |  |  |  |  |
| Cc1ccc2ccccc2c1CS(=O)(=O)c1cccc[n+]1[O-] [Compound 43] | ≧4 ug/ml | ≧4 ug/ml | >50 µg/mL | 37.5% | 37.5% | 20.0% |  |  |  |  |  |
| O=S(=O)(Cc1ccccc1I)c1cccc[n+]1[O-] [Compound 44] | 5.30 µg/mL (≈ 14.1 µM) | 3.4 µg/mL (≈ 9.06 µM) | >20 µg/mL |  |  | 20.0% |  |  |  |  |  |
| COc1ccc(CS(=O)(=O)c2cccc[n+]2[O-])cc1OC [Compound 46] | ≧20 ug/ml | 15.0 µg/mL (≈ 48.5 µM) | >50 µg/mL | 37.5% |  | 40.0% |  |  |  |  |  |
| COc1ccc(OC)c(CS(=O)(=O)c2cccc[n+]2[O-])c1 [Compound 47] | 10.00 µg/mL (≈ 32.3 µM) | 35.0 µg/mL (≈ 113 µM) | >50 µg/mL |  |  | 20.0% |  |  |  |  |  |
| CCOc1ccccc1CS(=O)(=O)c1cccc[n+]1[O-] [Compound 48] | 9.50 µg/mL (≈ 32.4 µM) | 16.0 µg/mL (≈ 54.5 µM) | >20 µg/mL |  |  | 20.0% |  |  |  |  |  |
| Cc1c(Cl)c(Cl)c(CS(=O)(=O)c2cccc[n+]2[O-])c(Cl)c1Cl [Compound 49] | ≧.8 ug/ml | ≧.8 ug/ml | 5.0 µg/mL | 37.5% | 37.5% |  |  |  |  |  |  |
| COc1cc(CS(=O)(=O)c2cccc[n+]2[O-])cc(OC)c1OC [Compound 50] | ≧20 ug/ml | ≧20 ug/ml | >50 µg/mL | 37.5% | 37.5% | 20.0% |  |  |  |  |  |
| O=S(=O)(Cc1c2ccccc2cc2ccccc12)c1cccc[n+]1[O-] [Compound 51, 2[1(9-anthryl)methylsulfonyl]pyridine-N-oxide] |  |  |  | 0.0% | 0.0% |  | > 0.8 µg/mL |  |  | > 0.8 µg/mL | 1.3 µg/mL (≈ 3.72 µM) |
